The numbers were not newly measured in paper PMC8025584, “Identification of multipotent drugs for COVID-19 therapeutics with the evaluation of their SARS-CoV2 inhibitory activity” (Computational and Structural Biotechnology Journal, 2021), which cites them from elsewhere.

Counter-ions that a name gives are not always drawn. Like-named read-outs stand apart in the source and are kept apart here. Where no end group is shown, it is not given here.

The test system of the series is differentially expressed human proteins in COVID-19. Particulars: cited from earlier work.
Where [1] appears, read: gene HCK, drug-gene interaction listed in DGIdb export, ref DGIdb.
Setting [2] is: gene TNF, drug-gene interaction listed in DGIdb export, ref DGIdb.
Setting [3] is: gene F5, drug-gene interaction listed in DGIdb export, ref DGIdb.

For the compound `CN(C)CC/C=C1/c2ccccc2COc2ccc(CC(=O)O)cc21` [OLOPATADINE, reference compound], the interaction_types result (gene S100A12, ref DGIdb) was “antagonist”. With `Cc1ccc(-n2nc(C(C)(C)C)cc2NC(=O)NCc2cc(F)ccc2Oc2ccc3c(cnn3CCO)c2)cc1` [PEXMETINIB], under setting [1], the interaction_types result is “inhibitor”. With `CN(c1ncccc1CNc1nc(Nc2ccc3c(c2)CC(=O)N3)ncc1C(F)(F)F)S(C)(=O)=O` [PF-00562271], under “gene PTK2B, ref DGIdb”, the interaction_types result is “inhibitor”.

As to `O=C(CCc1ccc(O)cc1)c1c(O)cc(O)cc1O` [PHLORETIN], the interaction_types result (gene AQP9, ref DGIdb) is listed as “inhibitor”.

As to `CC(C)(C)c1[nH]cnc1/C=c1\[nH]c(=O)/c(=C/c2ccccc2)[nH]c1=O` [PLINABULIN], the interaction_types result (gene TUBA4A, ref DGIdb) is “inhibitor”. On to `COc1cc([C@@H]2c3cc4c(cc3[C@H](O)[C@H]3COC(=O)[C@H]23)OCO4)cc(OC)c1OC` [PODOFILOX, reference compound], for which the interaction_types entry (gene TUBA4A, ref DGIdb) is given as “inhibitor”.

Turning to `CC1(C)OC(c2ccc(S(N)(=O)=O)cc2)=C(c2cccc(F)c2)C1=O` [POLMACOXIB], the interaction_types result (gene CA1, ref DGIdb) is “inhibitor”. For `Nc1cccc2c1C(=O)N(C1CCC(=O)NC1=O)C2=O` (centres unmarked) [POMALIDOMIDE], under setting [2], the interaction_types entry is “inhibitor”. With `COc1cc2nc(N3CCN(C(=O)c4ccco4)CC3)nc(N)c2cc1OC` [PRAZOSIN], for the setting “gene KCNH7, ref DGIdb”, the interaction_types entry is “inhibitor”. As for `CC(C)C[C@H](CN)CC(=O)O` [PREGABALIN, reference compound], the interaction_types entry is “modulator¦inhibitor”. Regarding `NC(=O)c1cnc(N[C@@H]2CCCC[C@@H]2N)nc1Nc1cccc(-n2nccn2)c1` [PRT-2607], the interaction_types result (gene FGR, ref DGIdb) is given as “inhibitor”.

Consider `CN[C@@H](C)[C@@H](O)c1ccccc1` [PSEUDOEPHEDRINE], for which, under setting [2], the interaction_types result is “inhibitor”. Turning to `CC(=O)O[C@H]1C(=O)[C@@]2(C)[C@H]([C@H](OC(=O)c3ccccc3)[C@]3(O)C[C@H](OC(=O)[C@H](O)[C@@H](NC(=O)c4ccccc4)c4ccccc4)C(C)=C1C3(C)C)[C@]1(OC(C)=O)CO[C@@H]1C[C@@H]2O` [Paclitaxel, reference compound], the interaction_types result (gene TUBA4A, ref DGIdb) is “inhibitor”. Turning to `CCC1NC(=O)c2cc(S(N)(=O)=O)c(Cl)cc2N1` (centres unmarked) [QUINETHAZONE], the interaction_types result (gene CA1, ref DGIdb) is on record as “inhibitor”. For the compound `CCCCCc1cccc(CC(=O)O)c1` [SETOGEPRAM], the interaction_types result (gene GPR84, ref DGIdb) is “antagonist”. Regarding `CCN1CCCC1CNC(=O)c1cc(S(N)(=O)=O)ccc1OC` (centres unmarked) [SULPIRIDE], the interaction_types entry (gene CA1, ref DGIdb) is recorded as “inhibitor”.

In the case of `Cc1ccc(C(=O)Nc2ccc(S(=O)(=O)O)c3cc(S(=O)(=O)O)cc(S(=O)(=O)O)c23)cc1NC(=O)c1cccc(NC(=O)Nc2cccc(C(=O)Nc3cc(C(=O)Nc4ccc(S(=O)(=O)O)c5cc(S(=O)(=O)O)cc(S(=O)(=O)O)c45)ccc3C)c2)c1` [SURAMIN], under “gene P2RY13, ref DGIdb”, the interaction_types result is reported as “antagonist”. Turning to `C[C@@H](C(=O)O)c1ccc(-c2ccccc2)c(F)c1` [TARENFLURBIL], for the setting “gene PSENEN, ref DGIdb”, the interaction_types entry was “modulator”.

As to `CCOC(=O)c1ccc(C#Cc2ccc3c(c2)C(C)(C)CCS3)nc1` [TAZAROTENE, reference compound], the interaction_types entry (gene RXRB, ref DGIdb) is “agonist”.

As to `COc1cc2nc(N3CCN(C(=O)C4CCCO4)CC3)nc(N)c2cc1OC` (centres unmarked) [TERAZOSIN], the interaction_types entry (gene KCNH7, ref DGIdb) is “inhibitor”.

In the case of `C[C@]12C=CC(=O)C=C1CC[C@@H]1[C@@H]2CC[C@]2(C)OC(=O)CC[C@@H]12` [TESTOLACTONE], the interaction_types result (gene CYP19A1, ref DGIdb) was “inhibitor”.

In the case of `Cc1cc(-c2cc(OC(=O)c3ccccc3)ccc2Cl)cc2nnc(Nc3ccc(OCCN4CCCC4)cc3)nc12` [TG100-801], the interaction_types result is given as “inhibitor” (gene FGR, ref DGIdb) and “inhibitor” under setting [1]. As for `O=C1CCC(N2C(=O)c3ccccc3C2=O)C(=O)N1` (centres unmarked) [THALIDOMIDE, reference compound], the interaction_types result under setting [2] was “inhibitor”. As for `CC1(C)O[C@@H]2[C@@H](CO[C@@]3(COS(N)(=O)=O)OC(C)(C)O[C@@H]23)O1` [TOPIRAMATE], the interaction_types result (gene CA1, ref DGIdb) was “inhibitor”. For the compound `CC1=C(/C=C/C(C)=C/C=C/C(C)=C/C(=O)O)C(C)(C)CCC1` [TRETINOIN, reference compound], the interaction_types result (gene RXRB, ref DGIdb) was “agonist”.

In the case of `NS(=O)(=O)c1cc2c(cc1Cl)NC(C(Cl)Cl)NS2(=O)=O` (centres unmarked) [TRICHLORMETHIAZIDE, reference compound], under “gene CA1, ref DGIdb”, the interaction_types entry is reported as “inhibitor”. As for `Cc1ccc2c(=O)c3cccc(CC(=O)O)c3oc2c1C` [VADIMEZAN], the interaction_types entry under setting [2] is listed as “inducer”.

On to `CC[C@]1(O)C[C@@H]2CN(CCc3c([nH]c4ccccc34)[C@@](C(=O)OC)(c3cc4c(cc3OC)N(C)[C@H]3[C@@](O)(C(=O)OC)[C@H](OC(C)=O)[C@]5(CC)C=CCN6CC[C@]43[C@@H]65)C2)C1` [VINBLASTINE SULFATE], for which the interaction_types result (gene TUBA4A, ref DGIdb) was “inhibitor”. As for `CC[C@]1(O)C[C@H]2CN(CCc3c([nH]c4ccccc34)[C@@](C(=O)OC)(c3cc4c(cc3OC)N(C=O)[C@H]3[C@@](O)(C(=O)OC)[C@H](OC(C)=O)[C@]5(CC)C=CCN6CC[C@]43[C@@H]65)C2)C1` [VINCRISTINE SULFATE], for the setting “gene TUBA4A, ref DGIdb”, the interaction_types entry is listed as “inhibitor”. For `CC[C@]12C=CCN3CC[C@@]4(c5cc([C@@]6(C(=O)OC)C[C@@H]7C[C@@H](C(C)(F)F)CN(Cc8c6[nH]c6ccccc86)C7)c(OC)cc5N(C)[C@H]4[C@@](O)(C(=O)OC)[C@@H]1OC(C)=O)[C@@H]32` [VINFLUNINE], the interaction_types result (gene TUBA4A, ref DGIdb) is recorded as “inhibitor”. Regarding `CCC1=C[C@@H]2CN(C1)Cc1c([nH]c3ccccc13)[C@@](C(=O)OC)(c1cc3c(cc1OC)N(C)[C@H]1[C@@](O)(C(=O)OC)[C@H](OC(C)=O)[C@]4(CC)C=CCN5CC[C@]31[C@@H]54)C2` [VINORELBINE TARTRATE], the interaction_types entry (gene TUBA4A, ref DGIdb) was “inhibitor”. With `CN(CCO)CC(O)Cn1cnc2c1c(=O)n(C)c(=O)n2C` (centres unmarked) [XANTHINOL], the interaction_types result (gene RPL3, drug-gene interaction listed in DGIdb export, ref DGIdb) is listed as “binder”. For the compound `CC(C)c1cc(CNc2nc(Nc3cc(C4CC4)[nH]n3)cc(N3CCN(C)CC3)n2)on1` [XL-228], the interaction_types result (gene FGR, ref DGIdb) was “inhibitor” and the interaction_types result under setting [1] was “inhibitor”. As to `C=CC(=O)N1CCC([C@@H]2CCNc3c(C(N)=O)c(-c4ccc(Oc5ccccc5)cc4)nn32)CC1` [ZANUBRUTINIB], the interaction_types entry (gene FGR, ref DGIdb) was “inhibitor”. Consider `CSCC[C@@H]1NC(=O)[C@H](CC(C)C)NC(=O)[C@H](CCCNC(=N)N)NC(=O)[C@H](CO)NC(=O)[C@@H]2CSSC[C@@H]3NC(=O)[C@H](CO)NC(=O)CNC(=O)[C@H]([C@@H](C)O)NC(=O)[C@H](CSSC[C@H](N)C(=O)N[C@@H](CCCCN)C(=O)NCC(=O)N[C@@H](CCCCN)C(=O)NCC(=O)N[C@@H](C)C(=O)N[C@@H](CCCCN)C(=O)N2)NC(=O)[C@H](CSSC[C@@H](C(N)=O)NC(=O)[C@H](CCCCN)NC(=O)CNC(=O)[C@H](CO)NC(=O)[C@H](CCCNC(=N)N)NC3=O)NC(=O)[C@H](CC(=O)O)NC(=O)[C@H](Cc2ccc(O)cc2)NC1=O` [ZICONOTIDE], for which the interaction_types entry is listed as “inhibitor”. As to `NS(=O)(=O)Cc1noc2ccccc12` [ZONISAMIDE], the interaction_types result (gene CA1, ref DGIdb) is reported as “inhibitor”. In the case of `CCCN(c1ccncc1F)n1cc(C)c2ccccc21` [[…]], the interaction_types result (gene KCNH7, ref DGIdb) is reported as “blocker”.

As for `C[C@@H]1O[C@@H](O[C@@H]2[C@@H](NC(=O)c3cc(=O)[nH]c(=O)[nH]3)C[C@@H](C(=O)NCCNC(=O)COCCOCC(=O)Nc3cc(S(=O)(=O)O)cc4cc(S(=O)(=O)O)cc(S(=O)(=O)O)c34)C[C@H]2O[C@@H]2O[C@H](CO)[C@H](O)[C@H](O[C@@H](CC3CCCCC3)C(=O)O)[C@H]2OC(=O)c2ccccc2)[C@@H](O)[C@H](O)[C@@H]1O` [[…]], the interaction_types result (gene SELL, ref DGIdb) was “antagonist”. As for `Nc1cnc(-c2cc(Cl)cc(Cl)c2Cl)c(N)n1` [[…]], the interaction_types entry (gene CACNA1A, drug-gene interaction listed in DGIdb export, ref DGIdb) is “blocker”. For `c1ccc(-c2[nH]ncc2-c2ccnc3ccccc23)nc1` [chembl:CHEMBL261454], where the note is “gene GAK, drug-gene interaction listed in DGIdb export, ref DGIdb”, the interaction_types result is on record as “inhibitor”. As for `COc1cc(/C=N/NC(=O)c2ccc3c(c2)OCO3)ccc1OCc1ccccc1` [chembl:CHEMBL1290251], the interaction_types result (gene FPR1, ref DGIdb) is “agonist”.

On to ADALIMUMAB, for which the interaction_types result under setting [2] is reported as “antibody¦inhibitor”. Consider ALDESLEUKIN, for which the interaction_types result is listed as “agonist”.

As for BAMINERCEPT, under “gene TNFSF14, ref DGIdb”, the interaction_types result is reported as “inhibitor”. Take BASILIXIMAB: the interaction_types result (gene IL2RG, ref DGIdb) is reported as “inhibitor”.

In the case of BELIMUMAB, where the note is “gene TNFSF13B, drug-gene interaction listed in DGIdb export, ref DGIdb”, the interaction_types entry is “antibody¦inhibitor¦modulator”.

For BRENTUXIMAB VEDOTIN, the interaction_types entry (gene TUBA4A, ref DGIdb) is “inhibitor”.

Consider CEPROTIN, for which the interaction_types entry under setting [3] is recorded as “inactivator”. Take DENENICOKIN: the interaction_types entry (gene IL2RG, ref DGIdb) was “agonist”. Take DROTRECOGIN ALFA (ACTIVATED): the interaction_types entry under setting [3] is “inhibitor”. For the compound ETANERCEPT, the interaction_types result under setting [2] is recorded as “inhibitor¦antibody”. Consider FILGRASTIM, for which the interaction_types entry (gene CSF2RB, ref DGIdb) is recorded as “agonist” and the interaction_types entry (gene CSF3R, ref DGIdb) was “stimulator¦agonist”. With INFLIXIMAB, the interaction_types result under setting [2] is “inhibitor”.

“INTERLEUKIN 15, RECOMBINANT NON-GLYCOSYLATED”: the interaction_types entry (gene IL2RG, ref DGIdb) was “agonist”. Turning to LIPEGFILGRASTIM, the interaction_types result (gene CSF3R, ref DGIdb) is listed as “agonist”. As for LVVYPWT [SPINORPHIN], for the setting “gene FPR1, ref DGIdb”, the interaction_types entry is “antagonist”. As to NADROPARIN, under “gene FOS, ref DGIdb”, the interaction_types result is given as “inhibitor”. PEGFILGRASTIM: the interaction_types entry (gene CSF3R, ref DGIdb) is on record as “agonist”. Consider POLAPREZINC, for which the interaction_types entry under setting [2] was “inhibitor”.
